Reference: patent publication US20170224653A1, “TLR-INDEPENDENT SMALL MOLECULE ADJUVANTS” (The Scripps Research Institute, priority 2014, published 2017)

Columns and labels:
THP-1 cells = test: TNF-α production upon compound treatment of THP-1 cells; format: cell-based; conditions: FIG. 2
mouse macrophages = test: TNF-α production in macrophages from mice with germline mutations or knockouts of TLR and signaling genes; format: cell-based
From the text: Induced TNF-α production was established with the use of macrophages from mice bearing germline genetic defects or knockouts of each of the genes encoding the TLRs or their downstream signaling molecules uniquely available in the laboratories of Professor Bruce Beutler, (University of Texas Southwestern Medical Center, Dallas, Tex.). See, (a) mutagenetix.utsouthwestern.edu.; (b) Arnold et al., (2012) ENU-induced phenovariance in mice: Inferences from 587 mutations. BMC Res. Notes. 5, 577-0500-5-577.

C57BL/6J mice = test: Adjuvant effect with ovalbumin, intramuscular immunization, serum OVA-specific IgG by ELISA; format: in vivo, mouse
Protocol: In FIG. 3, adjuvants were mixed with ovalbumin (OVA, 100 μg) and injected intramuscularly into C57BL/6J mice at the indicated doses. Two immunizations were administered with a booster given at 7 days.
FIG. 4 provides a series of graphs that show anti-olvalbumin titers at 14 days post immunization using adjuvants with ovalbumin (OVA, 100 μg) and injected intramuscularly into C57BL/6J mice. The adjuvants used were Compound 125-03, neoseptin-3 (below), LPS, MPLA (monophosphoryl lipid A from […]

[1] = Overt toxicity when used as an adjuvant at maximum doses; format: in vivo; conditions: maximum doses capable of administration, compared with LPS
Cyld = biological target: T1, Cyld (Homo sapiens, UniProt Q9NQC7); test: In vitro assay of Cyld activity; format: biochemical
T1 sequence (Q9NQC7 1-956): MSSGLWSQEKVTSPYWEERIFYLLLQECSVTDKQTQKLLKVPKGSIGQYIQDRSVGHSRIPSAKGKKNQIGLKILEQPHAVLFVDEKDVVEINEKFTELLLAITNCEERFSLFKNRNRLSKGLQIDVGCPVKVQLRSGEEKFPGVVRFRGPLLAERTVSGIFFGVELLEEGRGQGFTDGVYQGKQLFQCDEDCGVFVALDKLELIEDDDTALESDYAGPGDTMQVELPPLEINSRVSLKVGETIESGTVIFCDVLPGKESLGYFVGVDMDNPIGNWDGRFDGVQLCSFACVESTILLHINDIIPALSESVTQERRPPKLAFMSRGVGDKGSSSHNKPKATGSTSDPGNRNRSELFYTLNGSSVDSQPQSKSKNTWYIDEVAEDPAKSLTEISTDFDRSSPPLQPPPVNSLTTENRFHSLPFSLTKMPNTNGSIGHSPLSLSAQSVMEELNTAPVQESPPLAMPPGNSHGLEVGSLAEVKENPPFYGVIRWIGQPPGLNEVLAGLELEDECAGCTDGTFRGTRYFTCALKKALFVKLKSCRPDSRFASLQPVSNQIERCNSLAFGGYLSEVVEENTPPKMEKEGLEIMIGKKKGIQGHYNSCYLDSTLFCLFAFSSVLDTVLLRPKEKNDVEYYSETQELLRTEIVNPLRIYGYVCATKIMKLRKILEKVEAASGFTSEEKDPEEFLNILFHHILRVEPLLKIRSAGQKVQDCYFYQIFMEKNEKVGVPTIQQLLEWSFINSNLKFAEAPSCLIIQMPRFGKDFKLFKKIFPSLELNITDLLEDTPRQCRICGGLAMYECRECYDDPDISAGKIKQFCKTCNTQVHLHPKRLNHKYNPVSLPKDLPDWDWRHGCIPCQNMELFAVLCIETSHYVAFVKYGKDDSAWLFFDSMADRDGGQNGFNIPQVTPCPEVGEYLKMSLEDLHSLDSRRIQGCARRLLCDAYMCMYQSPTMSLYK

TLR ligands = test: Mechanistic studies: responses to TLR ligands; format: cell-based; conditions: TLR ligands including neoseptin-3
TLR4 = biological target: T2, TLR4 (Mus musculus, UniProt Q9JHF9+Q9QUK6); test: TLR4 agonist activity, stimulated TNF-alpha release in mouse macrophages; format: cell-based; conditions: for TLR4 agonist efficacy: relative to neoseptin-1 or LPS
T2 construct: measuring the stimulated TNF-alpha release in mouse macrophages; endogenous in cells; host or cells: mouse macrophages
T2 sequence (Q9QUK6 26-835): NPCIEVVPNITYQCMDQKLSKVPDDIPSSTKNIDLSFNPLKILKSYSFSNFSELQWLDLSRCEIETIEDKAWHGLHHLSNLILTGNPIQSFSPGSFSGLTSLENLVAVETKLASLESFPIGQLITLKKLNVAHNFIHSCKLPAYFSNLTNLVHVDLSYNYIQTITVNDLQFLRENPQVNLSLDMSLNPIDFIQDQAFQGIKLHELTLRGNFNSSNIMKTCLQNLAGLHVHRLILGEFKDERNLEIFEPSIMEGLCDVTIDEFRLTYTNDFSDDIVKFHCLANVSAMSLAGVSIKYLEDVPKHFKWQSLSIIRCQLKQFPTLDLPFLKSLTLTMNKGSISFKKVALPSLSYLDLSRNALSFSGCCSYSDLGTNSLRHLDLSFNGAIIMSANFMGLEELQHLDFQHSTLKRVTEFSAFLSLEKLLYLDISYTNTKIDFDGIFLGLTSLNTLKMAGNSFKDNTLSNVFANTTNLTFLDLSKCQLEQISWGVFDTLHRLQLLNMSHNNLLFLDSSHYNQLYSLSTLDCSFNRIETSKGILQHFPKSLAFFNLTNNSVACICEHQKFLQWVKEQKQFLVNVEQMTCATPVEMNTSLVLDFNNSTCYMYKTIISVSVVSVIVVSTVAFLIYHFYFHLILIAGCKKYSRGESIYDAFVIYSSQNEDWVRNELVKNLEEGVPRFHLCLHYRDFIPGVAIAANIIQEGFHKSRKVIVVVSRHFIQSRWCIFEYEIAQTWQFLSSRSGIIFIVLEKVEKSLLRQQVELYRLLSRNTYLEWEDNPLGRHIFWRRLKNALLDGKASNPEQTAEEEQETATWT
T2 sequence (Q9JHF9 19-160): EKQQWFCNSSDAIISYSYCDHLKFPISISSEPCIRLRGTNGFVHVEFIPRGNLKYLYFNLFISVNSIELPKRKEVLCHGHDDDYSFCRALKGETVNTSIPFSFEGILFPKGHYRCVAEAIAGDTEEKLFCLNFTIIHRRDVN
From the text: In efforts to improve the TLR4 agonist activity of an initial screening lead, neoseptin-1 (below), measuring the stimulated TNF-alpha release in mouse macrophages, Compound 125-03, used herein as illustrative of the contemplated compounds, emerged as a key compound capable of stimulating the immune response (below). […] [TLRs […] have been lost from the mouse genome, and TLRs 11, 12 and 13 have been lost from the human genome. Beutler, Blood, 113:1399-1407 (2009).]

Compound	release of TNF-alpha from differentiated human THP-1 cells (THP-1 cells)	TLR dependence of stimulated TNF-alpha production (mouse macrophages; macrophages from mice with disabling mutations or knockouts of TLR genes, FIG. 1)	stimulating the release of TNF-alpha in mouse macrophages (mouse macrophages; mouse macrophages)	adjuvant activity, serum OVA-specific IgG (C57BL/6J mice; OVA 100 μg, intramuscular, booster at 7 days, day 35 post-immunization, FIG. 3)	adjuvant activity compared with alum (C57BL/6J mice; anti-ovalbumin titers, 14 days post immunization, concentrations used, FIG. 4)	overt toxicity [1]	effect on Cyld activity (Cyld)	effect on responses to TLR ligands (TLR ligands)	TLR4 agonist efficacy (TLR4)	concentration needed for an antibody response similar to Compound 125-03 (C57BL/6J mice; at fourteen days)	TLR4 agonism (TLR4)
O=C(NCCCc1ccccc1)c1ccc(NC(=O)c2cc3ccccc3o2)c(OCCc2ccc(O)cc2)c1 [Compound 125-03, N-(2-(4-Hydroxyphenethoxy)-4-((3-phenylpropyl)-carbamoyl)phenyl)benzofuran-2-carboxamide]	dose dependent activity	independent of the TLRs including TLR4/MD-2	active	robust, dose-dependent adjuvant activity	more effective than alum	did not display the overt toxicity	directly inhibits Cyld activity	markedly increased responses to TLR ligands			
N[C@@H](Cc1ccccc1)C(=O)Nc1ccc(C(=O)N[C@@H](CCc2ccccc2)C(=O)O)cc1CCc1ccc(O)cc1 [MM-1-88]									significant enhancement in TLR4 agonist efficacy		
CC(C)(C)OC(=O)[C@H](CCc1ccccc1)NC(=O)c1ccc(N)c(CCc2ccc(O)cc2)c1 [neoseptin-3, reference compound]	not active in human cells								nearly matching the efficacy of LPS	about twice the concentration	TLR4-agonist
